Literature values, collected in patent EP4516295A1, “PH-INDUCIBLE STRUCTURE-SWITCHING LIPID NANOVECTORS, SEMI-SYNTHETIC EXTRACELLULAR VESICLES, METHODS OF MAKING SAME AND USES THEREOF” (ETH Zurich, priority 2023, dated 2025).

Conditions: apparent acid dissociation constant prior to incorporation in LNVs

pKa	Compound
7.2	CCCC/C=C\C/C=C\CCCCCCCCCC1(CCCCCCCC/C=C\C/C=C\CCCCC)OCC(CCCN(C)C)O1 (stereo not drawn) [DLin-KC3-DMA, N,N-dimethyl-3-(2-((10Z,13Z)-octadeca-10,13-dien-1-yl)-2-((9Z,12Z)-octadeca-9,12-dien-1-yl)-1,3-dioxolan-4-yl)propan-1-amine]
6.38	CCCCCC/C=C\COC(=O)CCCCCCCC(CCCCCCCC(=O)OC/C=C\CCCCCC)OC(=O)CCCN(C)C [L319]
6.09	CCCCCCCCC(CCCCCC)C(=O)OCCCCCCN(CCCCO)CCCCCCOC(=O)C(CCCCCC)CCCCCCCC (stereo not drawn) [ALC-0315]
5.9	CCCC/C=C\C/C=C\CCCCCCCCCC1(CCCCCCCC/C=C\C/C=C\CCCCC)OCC(CN(C)C)O1 [D-Lin-K-DMA, N,N-dimethyl-1-(2-((10Z,13Z)-octadeca-10,13-dien-1-yl)-2-((9Z,12Z)-octadeca-9,12-dien-1-yl)-1,3-dioxolan-4 yl)methanamine]
6.68	CCCC/C=C\C/C=C\CCCCCCCCCC1(CCCCCCCC/C=C\C/C=C\CCCCC)OCC(CCN(C)C)O1 (stereo not drawn) [DLin-KC2-DMA, N,N-dimethyl-2-(2-((10Z,13Z)-octadeca-10,13-dien-1-yl)-2-((9Z,12Z)-octadeca-9,12-dien-1-yl)-1,3-dioxolan-4-yl)ethan-1-amine]
6.68	CCCCCCCCCCCOC(=O)CCCCCN(CCO)CCCCCCCC(=O)OC(CCCCCCCC)CCCCCCCC [SM-102]
6.44	CCCCC/C=C\C/C=C\CCCCCCCCC(CCCCCCCC/C=C\C/C=C\CCCCC)OC(=O)CCCN(C)C [DLin-MC3-DMA, 4-(dimethylamino)-butanoic acid, (10Z,13Z)-1-(9Z,12Z)-9,12-octadecadien-1-yl-10,13-nonadecadien-1-yl ester]
7.3	CCCC/C=C\C/C=C\CCCCCCCCCC1(CCCCCCCC/C=C\C/C=C\CCCCC)OCC(CCCCN(C)C)O1 (stereo not drawn) [DLin-KC4-DMA, N,N-dimethyl-4-(2-((10Z,13Z)-octadeca-10,13-dien-1-yl)-2-((9Z,12Z)-octadeca-9,12-dien-1-yl)-1,3-dioxolan-4-yl)butan-1-amine]

Compound	pKa
CCCCC/C=C\C/C=C\CCCCCCCCOCC(CN(C)C)OCCCCCCCC/C=C\C/C=C\CCCCC (stereo not drawn) [DLin-DMA, 1,2-dilinoleyloxy-N,N-dimethyl-3-aminopropane]	6.8
